Measured values as given in PubChem BioAssay AID2458 (Broad Institute, 2010).
Records with an inconclusive call do not appear.

Molecular target: Luciferin 4-monooxygenase (Photinus pyralis) (UniProt P08659)
Assay: Photinus pyralis luciferase translation or activity inhibitors, H4 neuroglioma cells, confirmatory dose response (AID 2458)
Conditions: luciferase luminescence

Chain of Luciferin 4-monooxygenase (Photinus pyralis) (P08659 whole entry, looked up): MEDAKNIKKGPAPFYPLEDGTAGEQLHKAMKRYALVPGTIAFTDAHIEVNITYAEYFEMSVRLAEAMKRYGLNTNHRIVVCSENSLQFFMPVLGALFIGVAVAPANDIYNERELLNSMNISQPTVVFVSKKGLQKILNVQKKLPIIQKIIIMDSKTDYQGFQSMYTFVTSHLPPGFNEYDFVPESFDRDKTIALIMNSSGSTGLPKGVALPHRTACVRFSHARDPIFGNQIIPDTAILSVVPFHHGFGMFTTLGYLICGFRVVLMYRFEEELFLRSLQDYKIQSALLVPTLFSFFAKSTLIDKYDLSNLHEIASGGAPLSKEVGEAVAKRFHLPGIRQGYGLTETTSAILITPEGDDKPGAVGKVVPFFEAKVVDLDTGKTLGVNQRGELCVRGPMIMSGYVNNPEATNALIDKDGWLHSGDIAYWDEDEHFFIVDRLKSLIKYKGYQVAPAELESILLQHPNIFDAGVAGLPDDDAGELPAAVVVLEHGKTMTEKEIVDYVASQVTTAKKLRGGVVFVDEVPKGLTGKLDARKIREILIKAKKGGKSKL

`COc1ccc(O)c2c(=O)c3c(OC)cc4c(c3oc12)C1C=COC1O4` (stereo unspecified) gave an EC50 of 521 nM.
